{"source": "patent US9980943B2", "about": "“Methods of treating muscular dystrophy” (BOARD OF REGENTS OF THE NEVADA SYSTEM OF HIGHER EDUCATION, …, priority 2013, dated 2018)", "assay_type_in_all_cases": "cell-based, mouse", "key": {"[1]": {"tested_on": "α7 integrin (LacZ reporter in α7βgal+/− myoblasts)", "test": "Myoblast α7+/LacZ integrin FDG assay (Burkin assay in myoblasts, 96-well)", "conditions": "96-well; for Burkin Assay in Myoblasts, value relative to DMSO: SU9516 analogs, N=3-6; for Burkin Assay in Myoblasts, signal relative to DMSO: α7+/LacZ myoblasts"}, "[2]": {"tested_on": "α7 integrin (LacZ reporter in α7+/LacZ myotubes)", "test": "Myotube α7 integrin FDG assay (Burkin assay in myotubes, 96-well)", "conditions": "for Burkin Assay in Myotubes, value relative to DMSO: SU9516 analogs, 96-well, N=3-6"}, "[3]": {"tested_on": "β-galactosidase in CMV-LacZ C2C12 myoblasts", "test": "CMV-LacZ secondary screen in C2C12 myoblasts (β-Gal stabilizing assay)", "conditions": "for CMV-LACZ in Myoblasts, value relative to DMSO: SU9516 analogs, C2C12 CMV-LacZ, N=2; for CMV-LACZ in Myoblasts (β-galactosidase activity relative to DMSO): CMV-LacZ C2C12 myoblasts", "procedure,_shortened": "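β-gal stabilization was measured in C2C12 myoblasts or myotubes stably transfected with a CMV-driven LacZ construct, using the FDG β-gal assay. Compounds were tested in dose-response at 0.5, 1, 5, 10, 20 and 40 μM, with two replicates per point.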"}, "[4]": {"tested_on": "β-galactosidase in CMV-LacZ C2C12 myotubes", "test": "CMV-LacZ secondary screen in C2C12 myotubes (β-Gal stabilizing assay)", "conditions": "for CMV-LACZ in Myotubes, value relative to DMSO: SU9516 analogs, C2C12 CMV-LacZ, N=2; for CMV-LACZ in Myotubes, signal relative to DMSO: C2C12 CMV-LacZ myotubes, fold relative to DMSO", "procedure,_shortened": "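Dose-response runs at 0.5–40 μM (0.5, 1, 5, 10, 20, 40 μM; N=2 per point) used a clonal C2C12 line carrying CMV-LacZ. Cells were assayed as myoblasts or as differentiated myotubes, and β-galactosidase levels were read with the FDG fluorogenic substrate.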"}}}
{"smiles": "Cc1ccc2c(c1)/C(=C/c1ccccc1)C(=O)N2", "note": "[MLS001202354-01]", "values": [{"measurement": "Burkin Assay in Myoblasts, value relative to DMSO", "setting": "[1]; 0.5 uM", "value": 1.077}, {"measurement": "Burkin Assay in Myoblasts, value relative to DMSO", "setting": "[1]; 1 uM", "value": 1.023}, {"measurement": "Burkin Assay in Myoblasts, value relative to DMSO", "setting": "[1]; 5 uM", "value": 1.036}, {"measurement": "Burkin Assay in Myoblasts, value relative to DMSO", "setting": "[1]; 10 uM", "value": 1.073}, {"measurement": "Burkin Assay in Myoblasts, value relative to DMSO", "setting": "[1]; 20 uM", "value": 0.516}, {"measurement": "Burkin Assay in Myoblasts, value relative to DMSO", "setting": "[1]; 40 uM", "value": 0.4275}, {"measurement": "Burkin Assay in Myotubes, value relative to DMSO", "setting": "[2]; 0.5 uM", "value": 0.8459}, {"measurement": "Burkin Assay in Myotubes, value relative to DMSO", "setting": "[2]; 1 uM", "value": 0.9022}, {"measurement": "Burkin Assay in Myotubes, value relative to DMSO", "setting": "[2]; 5 uM", "value": 0.9545}, {"measurement": "Burkin Assay in Myotubes, value relative to DMSO", "setting": "[2]; 10 uM", "value": 1.069}, {"measurement": "Burkin Assay in Myotubes, value relative to DMSO", "setting": "[2]; 20 uM", "value": 0.5824}, {"measurement": "Burkin Assay in Myotubes, value relative to DMSO", "setting": "[2]; 40 uM", "value": 0.5785}, {"measurement": "CMV-LACZ in Myoblasts, value relative to DMSO", "setting": "[3]; 0.5 uM", "value": 1.2275}, {"measurement": "CMV-LACZ in Myoblasts, value relative to DMSO", "setting": "[3]; 1 uM", "value": 0.9521}, {"measurement": "CMV-LACZ in Myoblasts, value relative to DMSO", "setting": "[3]; 5 uM", "value": 0.9669}, {"measurement": "CMV-LACZ in Myoblasts, value relative to DMSO", "setting": "[3]; 10 uM", "value": 0.9170}, {"measurement": "CMV-LACZ in Myoblasts, value relative to DMSO", "setting": "[3]; 20 uM", "value": 0.8378}, {"measurement": "CMV-LACZ in Myoblasts, value relative to DMSO", "setting": "[3]; 40 uM", "value": 0.7437}, {"measurement": "CMV-LACZ in Myotubes, value relative to DMSO", "setting": "[4]; 0.5 uM", "value": 1.0676}, {"measurement": "CMV-LACZ in Myotubes, value relative to DMSO", "setting": "[4]; 1 uM", "value": 0.9200}, {"measurement": "CMV-LACZ in Myotubes, value relative to DMSO", "setting": "[4]; 5 uM", "value": 0.8910}, {"measurement": "CMV-LACZ in Myotubes, value relative to DMSO", "setting": "[4]; 10 uM", "value": 1.0340}, {"measurement": "CMV-LACZ in Myotubes, value relative to DMSO", "setting": "[4]; 20 uM", "value": 0.7000}, {"measurement": "CMV-LACZ in Myotubes, value relative to DMSO", "setting": "[4]; 40 uM", "value": 0.7863}]}
{"smiles": "COc1ccc(OC)c(NC(=O)CN2CCC(NC(=O)c3ccccc3C)CC2)c1", "note": "[MLS001212882-01]", "values": [{"measurement": "Burkin Assay in Myoblasts, signal relative to DMSO", "setting": "[1]; 0.5 uM", "value": 1.0132}, {"measurement": "Burkin Assay in Myoblasts, signal relative to DMSO", "setting": "[1]; 1 uM", "value": 1.07}, {"measurement": "Burkin Assay in Myoblasts, signal relative to DMSO", "setting": "[1]; 5 uM", "value": 1.049}, {"measurement": "Burkin Assay in Myoblasts, signal relative to DMSO", "setting": "[1]; 10 uM", "value": 0.9069}, {"measurement": "Burkin Assay in Myoblasts, signal relative to DMSO", "setting": "[1]; 20 uM", "value": 1.068}, {"measurement": "Burkin Assay in Myoblasts, signal relative to DMSO", "setting": "[1]; 40 uM", "value": 1.048}, {"measurement": "Burkin Assay in Myotubes, α7 integrin LacZ reporter signal relative to DMSO", "setting": "[2]; 0.5 uM", "value": 0.9814}, {"measurement": "Burkin Assay in Myotubes, α7 integrin LacZ reporter signal relative to DMSO", "setting": "[2]; 1 uM", "value": 1.023}, {"measurement": "Burkin Assay in Myotubes, α7 integrin LacZ reporter signal relative to DMSO", "setting": "[2]; 5 uM", "value": 0.9072}, {"measurement": "Burkin Assay in Myotubes, α7 integrin LacZ reporter signal relative to DMSO", "setting": "[2]; 10 uM", "value": 0.8877}, {"measurement": "Burkin Assay in Myotubes, α7 integrin LacZ reporter signal relative to DMSO", "setting": "[2]; 20 uM", "value": 0.8421}, {"measurement": "Burkin Assay in Myotubes, α7 integrin LacZ reporter signal relative to DMSO", "setting": "[2]; 40 uM", "value": 0.9107}, {"measurement": "CMV-LACZ in Myoblasts (β-galactosidase activity relative to DMSO)", "setting": "[3]; 0.5 uM", "value": 1.1409}, {"measurement": "CMV-LACZ in Myoblasts (β-galactosidase activity relative to DMSO)", "setting": "[3]; 1 uM", "value": 1.1291}, {"measurement": "CMV-LACZ in Myoblasts (β-galactosidase activity relative to DMSO)", "setting": "[3]; 5 uM", "value": 0.9792}, {"measurement": "CMV-LACZ in Myoblasts (β-galactosidase activity relative to DMSO)", "setting": "[3]; 10 uM", "value": 1.0086}, {"measurement": "CMV-LACZ in Myoblasts (β-galactosidase activity relative to DMSO)", "setting": "[3]; 20 uM", "value": 1.3230}, {"measurement": "CMV-LACZ in Myoblasts (β-galactosidase activity relative to DMSO)", "setting": "[3]; 40 uM", "value": 1.0326}, {"measurement": "CMV-LACZ in Myotubes, signal relative to DMSO", "setting": "[4]; 0.5 uM", "value": 1.0238}, {"measurement": "CMV-LACZ in Myotubes, signal relative to DMSO", "setting": "[4]; 1 uM", "value": 0.8705}, {"measurement": "CMV-LACZ in Myotubes, signal relative to DMSO", "setting": "[4]; 5 uM", "value": 1.0963}, {"measurement": "CMV-LACZ in Myotubes, signal relative to DMSO", "setting": "[4]; 10 uM", "value": 1.1133}, {"measurement": "CMV-LACZ in Myotubes, signal relative to DMSO", "setting": "[4]; 20 uM", "value": 1.1471}, {"measurement": "CMV-LACZ in Myotubes, signal relative to DMSO", "setting": "[4]; 40 uM", "value": 1.3024}]}
{"smiles": "O=C(N[C@@H](Cc1c[nH]c2ccccc12)C(=O)O)C1CCN(S(=O)(=O)c2cccs2)CC1", "note": "[MLS001175021-01]", "values": [{"measurement": "Burkin Assay in Myoblasts, signal relative to DMSO", "setting": "[1]; 0.5 uM", "value": 0.92}, {"measurement": "Burkin Assay in Myoblasts, signal relative to DMSO", "setting": "[1]; 1 uM", "value": 0.9803}, {"measurement": "Burkin Assay in Myoblasts, signal relative to DMSO", "setting": "[1]; 5 uM", "value": 0.8806}, {"measurement": "Burkin Assay in Myoblasts, signal relative to DMSO", "setting": "[1]; 10 uM", "value": 0.906}, {"measurement": "Burkin Assay in Myoblasts, signal relative to DMSO", "setting": "[1]; 20 uM", "value": 0.9747}, {"measurement": "Burkin Assay in Myoblasts, signal relative to DMSO", "setting": "[1]; 40 uM", "value": 0.9575}, {"measurement": "Burkin Assay in Myotubes, α7 integrin LacZ reporter signal relative to DMSO", "setting": "[2]; 0.5 uM", "value": 1.061}, {"measurement": "Burkin Assay in Myotubes, α7 integrin LacZ reporter signal relative to DMSO", "setting": "[2]; 1 uM", "value": 1.0167}, {"measurement": "Burkin Assay in Myotubes, α7 integrin LacZ reporter signal relative to DMSO", "setting": "[2]; 5 uM", "value": 1.051}, {"measurement": "Burkin Assay in Myotubes, α7 integrin LacZ reporter signal relative to DMSO", "setting": "[2]; 10 uM", "value": 0.9913}, {"measurement": "Burkin Assay in Myotubes, α7 integrin LacZ reporter signal relative to DMSO", "setting": "[2]; 20 uM", "value": 0.9799}, {"measurement": "Burkin Assay in Myotubes, α7 integrin LacZ reporter signal relative to DMSO", "setting": "[2]; 40 uM", "value": 0.8788}, {"measurement": "CMV-LACZ in Myoblasts (β-galactosidase activity relative to DMSO)", "setting": "[3]; 0.5 uM", "value": 1.1772}, {"measurement": "CMV-LACZ in Myoblasts (β-galactosidase activity relative to DMSO)", "setting": "[3]; 1 uM", "value": 1.0729}, {"measurement": "CMV-LACZ in Myoblasts (β-galactosidase activity relative to DMSO)", "setting": "[3]; 5 uM", "value": 0.9282}, {"measurement": "CMV-LACZ in Myoblasts (β-galactosidase activity relative to DMSO)", "setting": "[3]; 10 uM", "value": 0.9395}, {"measurement": "CMV-LACZ in Myoblasts (β-galactosidase activity relative to DMSO)", "setting": "[3]; 20 uM", "value": 1.1070}, {"measurement": "CMV-LACZ in Myoblasts (β-galactosidase activity relative to DMSO)", "setting": "[3]; 40 uM", "value": 1.0907}, {"measurement": "CMV-LACZ in Myotubes, signal relative to DMSO", "setting": "[4]; 0.5 uM", "value": 1.0611}, {"measurement": "CMV-LACZ in Myotubes, signal relative to DMSO", "setting": "[4]; 1 uM", "value": 0.9621}, {"measurement": "CMV-LACZ in Myotubes, signal relative to DMSO", "setting": "[4]; 5 uM", "value": 0.9049}, {"measurement": "CMV-LACZ in Myotubes, signal relative to DMSO", "setting": "[4]; 10 uM", "value": 0.7979}, {"measurement": "CMV-LACZ in Myotubes, signal relative to DMSO", "setting": "[4]; 20 uM", "value": 1.1378}, {"measurement": "CMV-LACZ in Myotubes, signal relative to DMSO", "setting": "[4]; 40 uM", "value": 0.9733}]}
